Assay results from patent publication US9603890B2, “Methods for increasing the selective efficacy of gene therapy using CAR peptide and heparan-sulfate mediated macropinocytosis” (Vascular Biosciences, priority 2012, dated 2017).
Like-named read-outs stand apart in the source and are kept apart here. Where no end group is shown, it is not given here.

Experiments:
[1] = system: Chinese hamster ovary cells; details: cited from earlier work
[2] = system: animal models of pulmonary arterial hypertension (PAH); details: cited from earlier work
[3] = system: rats with severe occlusive pulmonary hypertension induced by Sugen injection followed by hypoxia; test: MFN2 adenovirus gene therapy alone or co-administered with CAR peptide in severe occlusive PAH rats; format: in vivo, rat
Excerpt: CAR peptide was able to exert its disease-selective adjuvant properties by allowing enhanced viral delivery and uptake of gene product (MFN2) in an animal model of severe occlusive PAH in rats. (A) Figure showing the effect of MFN2 GTx administered alone when compared to control and diseased animal not given MFN2 Gtx. Statistical significance was examined using ANOVA (see Supplement for further statistical information). (B) Change in mitofusion-2 mRNA levels relative to control. […] (D) mPAP (mmHg) levels in Sugen hypoxia rats.
Adenoviruses were used as viral delivery vectors to incorporate cDNA inserts of MFN2 into rats with severe occlusive pulmonary hypertension induced by Sugen injection followed by hypoxia (FIG. 1).
The MFN2 gene encodes the mitofusion-2 protein, which is a mitochondrial membrane protein that participates in mitochondrial fusion. Mitofusion-2 contributes to the maintenance and operation of the mitochondrial network, and is involved in the regulation of vascular smooth muscle cell (VSMC) proliferation. […] Successful delivery and uptake of the MFN2 gene via adenovirus delivery vector into diseased cells results in increased expression of the mitofusion-2 protein, regulation of VSMC proliferation, and a subsequent decrease in disease indicators. […]

[4] = Cell internalization and tissue penetration of truncated CAR versus CAR; format: cell-based
[5] = target: T1, Heparinase I (EC 4.2.2.7) (Pedobacter heparinus, UniProt Q05819); details: heparan sulfate moiety as substrate; cited from earlier work
T1 sequence (Q05819 22-384): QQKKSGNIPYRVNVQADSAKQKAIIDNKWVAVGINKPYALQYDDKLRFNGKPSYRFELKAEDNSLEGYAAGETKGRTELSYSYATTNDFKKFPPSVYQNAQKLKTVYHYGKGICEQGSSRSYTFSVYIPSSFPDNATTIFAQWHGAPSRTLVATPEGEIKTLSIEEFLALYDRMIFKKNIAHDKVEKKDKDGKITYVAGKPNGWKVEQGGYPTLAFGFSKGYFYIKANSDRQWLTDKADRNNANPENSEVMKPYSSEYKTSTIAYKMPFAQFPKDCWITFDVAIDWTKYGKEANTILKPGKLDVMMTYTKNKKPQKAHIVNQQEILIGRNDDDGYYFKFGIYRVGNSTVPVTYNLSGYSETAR

[6] = target: T2, Heparanase (EC 3.2.1.166) (Homo sapiens, UniProt Q9Y251); details: heparan sulfate moiety as substrate; cited from earlier work
T2 sequence (Q9Y251 158-543 limits assumed): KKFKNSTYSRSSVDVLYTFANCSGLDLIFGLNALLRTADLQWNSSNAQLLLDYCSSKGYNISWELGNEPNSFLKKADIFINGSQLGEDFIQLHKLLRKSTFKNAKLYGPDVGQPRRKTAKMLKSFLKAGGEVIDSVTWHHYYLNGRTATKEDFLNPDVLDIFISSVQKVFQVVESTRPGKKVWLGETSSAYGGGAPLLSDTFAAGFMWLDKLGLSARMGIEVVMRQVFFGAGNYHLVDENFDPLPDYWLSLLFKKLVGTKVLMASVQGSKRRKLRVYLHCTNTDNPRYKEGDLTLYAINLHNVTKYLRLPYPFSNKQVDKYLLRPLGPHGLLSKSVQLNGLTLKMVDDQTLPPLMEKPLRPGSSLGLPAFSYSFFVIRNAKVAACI
T2 sequence (Q9Y251 36-109 limits assumed): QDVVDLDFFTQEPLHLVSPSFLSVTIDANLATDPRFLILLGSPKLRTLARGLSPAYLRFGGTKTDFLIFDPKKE

## CARSKNKDC (also: cyclic, type not given here) [a 9 amino acid cyclic peptide …]
[1]; cells treated with heparinase I and III
  binding of CAR to Chinese hamster ovary cells: greatly reduced
[1]; cells treated with heparinase I
  binding of CAR to Chinese hamster ovary cells: greatly reduced
[2]; CAR co-administered with vasodilators
  increase in selective vasodilation: approximately 2 ×
[2]; in vivo
  increase in co-administered drug concentration: 2 ×
[3]
  increase in gene therapy transfected gene expression: 7 ×

## CARSKNK [tCAR, truncated form of CAR]
[4]
  potency for cell internalization and tissue penetration versus parent peptide CAR: more potent

## 2-O-sulfo-α-L-iduronic acid-2-deoxy-2-acetamido-α-D-glucopyranosyl [IdoA2S-GlcNS]
[5]
  Heparinase I cleavage (EC 4.2.2.7): Yes
[6]
  Heparanase cleavage (EC 3.2.1.166): No
